In publication PMC8793064, “Bioassay Guided Fractionation of Senna singueana and Its Potential for Development of Poultry Phytogenic Feed Additives” (Frontiers in Veterinary Science, 2022):
Converted amounts (≈) assume the structure as drawn. Marks after values point to notes of the source that are not given here.

What was measured:
DPPH free radical assay = details: for DPPH IC50: 30 min, 516 nm; for DPPH IC50 obtained after log transformation of data: value in brackets, data not normally distributed
Method: The antioxidant activities of the samples were measured in terms of radical scavenging ability using the stable radical (DPPH) method of Brand-Williams et al. ([12]) with some modifications. Methanol solutions (40 μl) of the samples and positive controls (Trolox and ascorbic acid) at various concentrations (0.1–100 μg/ml) were prepared by serial dilution in a 96 well-microtitre plate. One hundred and sixty (160) μl of DPPH in methanol adjusted to an absorbance between 0.9 and 1.0 was added and the plates were incubated in the dark at room temperature (25°C) for 30 min. Absorbance was measured against a blank with a microtitre plate reader (Epoch, BioTek, United States) at 516 nm. The DPPH scavenging effect was determined using the following formula:
(1) DPPH Scavenging Effect(%)=[(A1-A2/A1)] × 100
Where A1 is the absorbance of the control reaction and A2 is the absorbance in the presence of the sample. Trolox and ascorbic acid were used as controls. The experiments were conducted twice.

[1] = ABTS free-radical-scavenging assay; details: for ABTS IC50: 6 min, 734 nm; for ABTS IC50 obtained after log transformation of data: value in brackets, data not normally distributed
Method: The free radical-scavenging activity as a measure of hydrogen donating capacity was determined by using the ABTS cation decolourization method of Re et al. ([16]) with some modifications. ABTS radical solution (7 μM) was prepared by dissolving 1.32 × 10^4 μg of ABTS in 10 ml of 50% methanolic solution and 7.68 × 10^4 μg of potassium persulphate ([…]) in 10 ml of distilled water. The two solutions were mixed together and made up to 200 ml with 50% methanolic solution, and kept in the dark at room temperature, 25°C for 12 h. Prior to running the assay, the ABTS radical solution was diluted with 50% methanolic solution to an absorbance between 0.7 and 0.8 at 734 nm. The samples were serially diluted (40 μl) (0.1–100 μg/ml) in 96 well-microtitre plates and 160 μl of ABTS radical solution was added to each well. The absorbance readings were taken after exactly 6 min of reaction and blanks were prepared using the respective samples without ABTS radical. The scavenging effect was calculated using the following formula:
(2) ABTS Scavenging Effect(%)=[(A1-A2/A1)] × 100
The IC50 values were calculated from a graph plotted as inhibition percentage against the concentration. A Trolox standard curve was drawn by plotting percentage inhibition of the ABTS+ radical against the concentration of Trolox. Data from the test samples were analysed in a similar manner.

[2] = tested on: Escherichia coli (ATCC 25922); assay: MIC by serial two-fold microdilution; type: cell-based; details: ATCC25922, 24 h
Method: (§1) The four bacterial cultures were prepared by inoculating a single colony from an agar plate into 10 ml of sterilised Mueller-Hinton (MH) broth (Merck, South Africa) and incubating at 37°C in an MRC orbital shaker (150 rpm) incubator (United Scientific, South Africa) for 18 to 20 h prior to the experiment. Following incubation, each bacterial strain was diluted in MH broth (Merck, South Africa) and the absorbance was measured at a wavelength of 560 nm using a spectrophotometer (Epoch microplate reader: BioTek, United States).
(§2) The assay was performed in microtitre plates (Lasec, South Africa) by adding 100 μl of sterile water to all wells. In the first row, 100 μl of extract, fraction or compound were added in triplicate and serially diluted two-fold to the last well, from which 100 μl were then discarded. Gentamicin (Virbac, South Africa) was used as a positive control and a sterility control containing only water was included. This was followed by addition of 100 μl of the bacterial suspension to each well (except for the sterility control). The plates were sealed with parafilm and incubated at 37°C (IncoTherm, Labotec). After 24 h, 40 μl of a 0.2 mg/ml solution of INT was added to each well and the plate further incubated for at least half an hour to ensure adequate colour development. INT is a dehydrogenase activity detecting reagent, which is converted into an intensely coloured red-purple formazan by metabolically active micro-organisms. Inhibition of growth was indicated by a clear solution or a noticeable decrease in colour reaction. This value was taken as the MIC of the sample. The experiments were conducted twice.

[3] = tested on: Escherichia coli (clinical strain); assay: MIC by serial two-fold microdilution; type: cell-based; details: 24 h
Method: as §1, §2

[4] = tested on: Staphylococcus aureus (ATCC 29213); assay: MIC by serial two-fold microdilution; type: cell-based; details: ATCC29213, 24 h
Method: as §1, §2

15-LOX = biological target: T1, 15-LOX (Glycine max, UniProt P08170); assay: biochemical
T1 construct: purchased Sigma Aldrich, Germany
T1 sequence (P08170 1-839): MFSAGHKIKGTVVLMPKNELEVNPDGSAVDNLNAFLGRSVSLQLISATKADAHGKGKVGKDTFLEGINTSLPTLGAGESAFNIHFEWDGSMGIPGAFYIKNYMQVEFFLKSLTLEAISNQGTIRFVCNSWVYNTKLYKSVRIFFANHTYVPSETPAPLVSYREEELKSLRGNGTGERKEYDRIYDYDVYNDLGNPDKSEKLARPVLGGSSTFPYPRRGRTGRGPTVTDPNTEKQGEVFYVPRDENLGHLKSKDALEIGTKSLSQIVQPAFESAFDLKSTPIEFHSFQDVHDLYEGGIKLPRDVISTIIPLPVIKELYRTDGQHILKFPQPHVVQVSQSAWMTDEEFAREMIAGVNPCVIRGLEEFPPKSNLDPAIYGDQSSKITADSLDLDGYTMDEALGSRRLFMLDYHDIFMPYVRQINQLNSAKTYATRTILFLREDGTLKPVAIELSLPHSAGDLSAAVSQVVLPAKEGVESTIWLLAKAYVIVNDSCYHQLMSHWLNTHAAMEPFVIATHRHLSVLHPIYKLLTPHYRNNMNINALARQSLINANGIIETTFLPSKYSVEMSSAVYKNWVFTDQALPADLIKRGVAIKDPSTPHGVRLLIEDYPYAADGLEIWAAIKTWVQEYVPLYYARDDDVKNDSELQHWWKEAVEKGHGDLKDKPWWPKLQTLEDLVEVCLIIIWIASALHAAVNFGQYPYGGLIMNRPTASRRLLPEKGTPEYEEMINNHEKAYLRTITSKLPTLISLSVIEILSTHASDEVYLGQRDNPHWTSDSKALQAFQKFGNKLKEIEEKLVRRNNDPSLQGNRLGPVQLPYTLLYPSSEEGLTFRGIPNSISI
Method: Lipoxygenase (LOX) activity of the samples was determined spectrophotometrically according to published methods ([17], [18]). LOX inhibition was determined spectrophotometrically based on the formation of the complex Fe3+/xylenol orange as described by Pinto et al. ([19]). Briefly, 20 μl of Tris-HCl buffer (pH 7.4) was added to all wells of the 96-well-microplates. This was followed by the addition of 20 μl of the fractions (1 or 0.5 mg/ml) in the first row of the plate which was serially diluted. […] After the serial dilution, 40 μl of the lipoxygenase enzyme (Sigma Aldrich, Germany) was added to each well and the plates were incubated at room temperature 25°C for 5 min. After incubation, 40 μl of linoleic acid (final concentration, 140 μM) prepared in Tris-HCl buffer (50 mM, pH 7.4) was added to the well (except for the blanks). The plates were incubated at 25°C for 20 min in the dark. After incubation, 100 μl of freshly prepared ferrous oxidation–xylenol orange (FOX) reagent [sulfuric acid (30 mM), xylenol orange (100 μM), iron (II) sulphate (100 μM) in methanol/water (9:1)] was added to all wells. The plates were further incubated at 25°C for 30 min in the dark, 40 μl of linoleic acid was then added to the blanks. The absorbance was measured at 560 nm. […] The experiments were conducted twice.

[5] = tested on: Escherichia coli (ATCC 25922); assay: Antibacterial TLC bioautography; type: cell-based; details: E. coli
Excerpt: (§3) The compounds in the crude extract and fractions, as well as the purified compounds were developed as described above but the bioautograms were sprayed with respective cultures. After development, the TLC plates were dried overnight in a stream of cold air and sprayed with an actively growing concentrated suspension of strains of either Staphylococcus aureus (ATCC 29213), Salmonella enterica subsp. enterica var. Enteritidis (S. Enteritidis ATCC 13076) or Escherichia coli (ATCC 25922). The plates were dried and incubated overnight at 37°C in closed, sterile, humidified plastic containers to allow growth of the bacteria on the plates. After incubation, the plates were sprayed with a sterile 2 mg/ml solution of p-iodonitrotetrazolium (INT, Sigma-Aldrich) salt and incubated for a further 1 h. The presence of clear zones on the chromatogram after the incubation period indicated inhibition of growth as the INT is metabolised to a coloured formazan product by the actively growing cells ([11]). The retention factors of the bands of inhibition were calculated.

[6] = tested on: Staphylococcus aureus (ATCC 29213); assay: Antibacterial TLC bioautography; type: cell-based; details: S. aureus
Excerpt: as §3

[7] = tested on: S. Enteritidis ATCC 13076; assay: Antibacterial TLC bioautography; type: cell-based, Salmonella enterica subsp. enterica var. Enteritidis
Excerpt: as §3

[8] = Qualitative antioxidant activity, TLC sprayed with DPPH; details: TLC sprayed with DPPH 0.2% w/v
Method: TLC plates (10 × 20 cm, aluminium-backed, Merck, silica gel 60 F254) were loaded with 10 μl of the crude extract, fraction or compound (re-dissolved to 10 mg/ml) and dried before being developed in two mobile phase systems (CEF and EMW). […] A change of colour from the DPPH purple background to yellow indicated the presence of antioxidant compounds ([13]).

[9] = tested on: three ATCC strains and E. coli clinical strain; assay: MIC by microdilution, stated over the whole panel of strains; type: cell-based
Method: as §1
as §2, with “INT is a dehydrogenase activity detecting reagent, which is converted into an intensely coloured red-purple formazan by metabolically active micro-organisms. Inhibition of growth was indicated by a clear solution or a noticeable decrease in colour reaction. This value was taken as the MIC of the sample. The experiments were conducted twice.” left out

in vitro = details: monkey
Method: (§4) The cytotoxic effect of the fractions and the isolated compounds was determined using an in vitro assay with Vero monkey kidney cells ([15]). The growth medium used was Minimal Essential Medium (MEM, Whitehead Scientific) supplemented with 0.1% gentamicin (Virbac) and 5% foetal calf serum (Highveld Biological). The cells were seeded at a density of 10 000 cells/per well in 96-well-microtitre plates. The plates were incubated at 37°C in a 5% CO2 incubator in a humidified environment for 24 h to allow cell attachment.
(§5) After incubation, the medium was aspirated and replaced with fresh MEM. The fractions/compounds (100 μl) of varying concentrations were added to the wells containing cells. The anticancer compound doxorubicin (Pfizer Laboratories) was used as a positive control. A suitable blank control with equivalent concentrations of fresh medium was also included and the plates were further incubated for 48 h in a CO2 incubator. Subsequently, the medium in each well was aspirated from the cells, which were washed with phosphate-buffered saline (PBS) and fresh medium was then added to each well. A 30 μl aliquot of MTT (5 mg/ml in PBS) was added to each well and the plates were incubated at 37°C for 4 h. The medium was then aspirated from wells and 50 μl DMSO was added to each well to solubilise the formed formazan crystals. The absorbance was measured on a BioTek Synergy microtitre plate reader at 570 nm. Cell growth inhibition for each extract was expressed in terms of LC50 values. […] The cytotoxicity assay was repeated thrice.

[10] = tested on: Salmonella Enteritidis (ATCC 13076); assay: MIC by serial two-fold microdilution; type: cell-based, Salmonella enterica subsp. enterica var. Enteritidis; details: Salmonella enterica, 24 h
Method: as §1
as §2, with “INT is a dehydrogenase activity detecting reagent, which is converted into an intensely coloured red-purple formazan by metabolically active micro-organisms. Inhibition of growth was indicated by a clear solution or a noticeable decrease in colour reaction. This value was taken as the MIC of the sample. The experiments were conducted twice.” left out

Method for Vero monkey kidney cells: as §4, §5

DPPH IC50 (DPPH free radical assay) | ABTS IC50 [1] | Structure (SMILES) | DPPH IC50 obtained after log transformation of data (DPPH free radical assay) [μg/ml] | ABTS IC50 obtained after log transformation of data [1] [μg/ml] | MIC [2] [µg/mL] | MIC [3] [µg/mL] | MIC [4] [µg/mL] | CC50 at 48 h (in vitro) [µg/mL] | also measured
1.97 ± 0.21 µg/mL | 1.90 ± 0.07 µg/mL | O=C1O[C@H]([C@@H](O)CO)C(O)=C1O [Ascorbic acid, ascorbic acid] | 2.45 | 2.45 |  |  |  |  | 
 |  | COc1cccc2c1C(=O)c1c(O)c3c(c(O)c1C2=O)C[C@@](O)(C(=O)CO)C[C@@H]3O[C@H]1C[C@H](N)[C@H](O)[C@H](C)O1 [Doxorubicin, doxorubicin, reference compound] |  |  |  |  |  | 9 ± 1.28 (≈ 16.6 µM) | 
 |  | CNC(C)C1CCC(N)C(OC2C(N)CC(N)C(OC3OCC(C)(O)C(NC)C3O)C2O)O1 (stereo not drawn) [Gentamicin, reference compound] |  |  | 20 (≈ 41.9 µM) | 20 (≈ 41.9 µM) | 20 (≈ 41.9 µM) |  | MIC [10]: 20 µg/mL (≈ 41.9 µM)
3.19 ± 0.32 µg/mL | 2.21 ± 0.30 µg/mL | Cc1c(C)c2c(c(C)c1O)CCC(C)(C(=O)O)O2 (stereo not drawn) [Trolox] | 4.02 | 2.76 |  |  |  |  | 

Structure (SMILES) | DPPH IC50 (DPPH free radical assay) | ABTS IC50 [1] | DPPH IC50 obtained after log transformation of data (DPPH free radical assay) [μg/ml] | ABTS IC50 obtained after log transformation of data [1] [μg/ml] | MIC [2] [µg/mL] | MIC [3] [µg/mL] | MIC [4] [µg/mL] | CC50 at 48 h (in vitro) [µg/mL] | also measured
O=c1cc(-c2ccc(O)c(O)c2)oc2cc(O)cc(O)c12 [Compound 1, luteolin] | 5.92 ± 0.64^a μg/ml | 8.17 ± 0.80^a μg/ml |  |  | 156 (≈ 545 µM) | 156 (≈ 545 µM) | 625 (≈ 2180 µM) | 92.9 ± 1.7 (≈ 325 µM) | IC50 (15-LOX): 25.8 µM; antibacterial activity in bioautography [5]: active; antibacterial activity in bioautography [6]: active; antibacterial activity in bioautography [7]: active; antioxidant activity in bioautography (DPPH bleaching) [8]: antioxidant activity; MIC ([9]; Escherichia coli, three ATCC strains and E. coli clinical strain, read-out: MIC values over the tested strains): > 100 µg/mL; antibacterial activity class ([9]; all the tested bacterial strains): weak (values >625 μg/ml indicate weak activity); cytotoxicity class (Vero monkey kidney cells): moderate
